In US8653057B1, “Prophylactic perioperative testosterone supplementation for protection of and recovery of function” (The Regents of the University of California, priority 2010, dated 2014):

Assays:
[1] = cited from earlier work
[2] = testosterone supplementation of low-testosterone patients around radical prostatectomy (anecdotal results); type: in vivo, men
Excerpt: Therefore men with either low or low normal testosterone levels can be treated with testosterone (or other androgens such as synthetic steroids structurally related to testosterone) to prevent, mitigate or treat erectile dysfunction associated with RARP/RP. A large number of testosterone replacement drugs such as Androgel can easily be given to appropriate patients prior to or even following surgery. The amount of testosterone administered is sufficient to raise the free testosterone level into the high free testosterone range as defined above (generally greater than about 9 ng/dl). Where other androgens are used, the equivalent effectiveness of each different molecule in terms of testosterone is generally known. Sufficient androgen is given so that the effectiveness of the circulating level of androgen plus testosterone falls within the high free testosterone range. As will be clear to those of ordinary skill in the art, the testosterone or other androgen is administered at the usual amount and frequency. Circulating testosterone levels are measured at appropriate intervals (i.e., weekly or monthly) and the dosage adjusted if necessary.
We believe that preoperative supplementation will produce even more dramatic improvements. […]

In the case of `C[C@]12CC[C@H]3[C@@H](CCC4=CC(=O)CC[C@@]43C)[C@@H]1CC[C@@H]2O` [testosterone], the “PSA values after testosterone replacement therapy” value [1] is listed as “have not been shown to increase significantly”, the “prostate specific antigen (PSA)” value ([1]; testosterone replacement after radical prostatectomy, small studies (7, 10 and 57 men), 13 and 19 months) is listed as “without increasing prostate specific antigen (PSA)” and the “recovery (of potency/sexual function) after prostate surgery” value ([2]; supplementing low testosterone levels, anecdotal results) is listed as “more rapid and more complete recovery”. The “recurrence of the cancer” value ([2]; testosterone supplementation, limited data) was “does not lead to recurrence of the cancer”.
